Consider 16 compounds from patent US8481495B2 (TetraLogic Pharmaceuticals Corporation, priority 2009, dated 2013).

One assay deals with T1, cIAP-1 BIR-3 (Homo sapiens, UniProt Q13490).
T1 construct: 40 nM of the respective IAP BIR3
The experiment in a line: Fluorescence polarization binding to cIAP-1 BIR-3 with labeled peptide AbuRPF-K(5-Fam)-NH2. As to conditions: cIAP-1 BIR-3, 40 nM BIR3, 5 nM labeled peptide, 15 min RT, pH 7.5; read-out: cIAP1, nM (binding affinity KD, as range). The procedure: (§1) The binding affinities of the compounds are reported as a KD value (μM). Briefly, various concentrations of test peptides were mixed with 5 nM of the fluorescently labeled peptide (i.e., a mutated N-terminal Smac peptide-AbuRPF-K(5-Fam)-NH2) and 40 nM of the respective IAP BIR3 for 15 min at RT in […] of 0.1M Potassium Phosphate buffer, pH 7.5 containing […] bovine g-globulin. Following incubation, the polarization values (mP) were measured on a Victor2V™ (available from PerkinElmer® Life Sciences) using a 485 nm excitation filter and a 520 nm emission filter. The reported binding affinities (KD values) are supplied as ranges (A=<0.1 μM, B=0.1 μM to 1 μM, C=>1 μM to 10 μM, D=>10 μM).
For orientation: Fluorescence polarisation rises when a labelled molecule tumbles more slowly, as on binding a larger partner.

A further assay has as its target T2, XIAP BIR-3 (Homo sapiens, UniProt P98170).
T2 construct: 40 nM of the respective IAP BIR3
The experiment in a line: Fluorescence polarization binding to XIAP BIR-3 with labeled peptide AbuRPF-K(5-Fam)-NH2. The following applies: XIAP BIR-3, 40 nM BIR3, 5 nM labeled peptide, 15 min RT, pH 7.5; read-out: XIAP, nM (binding affinity KD, as range). The procedure:
as §1

The subject of a further assay is SK-OV-3 cells. The experiment in a line: MTT cell growth inhibition assay in ovarian cancer cell line SK-OV-3. It counts as cell-based. The following applies: Homo sapiens, 72 hrs incubation, read-out: SKOV3, nM (CC50, concentration giving 50% cell survival, as range). The method, then: Compounds of the invention also were tested for their ability to inhibit the growth of an ovarian cancer cell line, SK-OV-3. A known assay previously used for measuring cell growth (as described in Hansen, M. B., Nielsen, S. E., and Berg, K. (1989) J. Immunol. Methods 119, 203-210 and incorporated herein by reference in its entirety) was used. Briefly, SK-OV-3 cells are seeded in 96-well plates in McCoy's medium containing 10% fetal bovine serum albumin (5,000 per well) and incubated overnight at 37° C. The next day, test compounds are added at various concentrations (0.003-10 μM) and the plates are incubated at 37° C. for an additional 72 hrs. This incubation time was considered to be optimal for measuring inhibitory effects of the different compounds tested. 50 microliters of 5 mg/mL MTT reagent is added to each well and the plates are incubated at 37° C. for another three (3) hours. At the end of the three (3) hour incubation period, 50 microliters of DMSO is added to each well to dissolve cells and the optical density (OD) of the wells is measured with a microplate reader (Victor^2 1420™, Wallac, Finland) at 535 nm. Cell survival (CS) was calculated using the following equation: CS=(OD treated well/mean OD control wells)×100%.
The CC50 (reported in the following tables), is defined as the drug concentration that results in 50% cell survival (CS), and is derived by calculating the point where the dose-response curve crosses the 50% CS point using GraphPad Prism® graphing software. The reported CC50 values are supplied as ranges (A=<0.1 μM, B=0.1 μM to 1 μM, C=>1 μM to 10 μM, D=>10 μM).

T1 sequence (Q13490 253-363 limits assumed): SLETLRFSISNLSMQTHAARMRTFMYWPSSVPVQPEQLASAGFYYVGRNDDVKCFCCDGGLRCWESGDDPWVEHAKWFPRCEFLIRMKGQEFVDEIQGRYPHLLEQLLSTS
T2 sequence (P98170 241-356 limits assumed): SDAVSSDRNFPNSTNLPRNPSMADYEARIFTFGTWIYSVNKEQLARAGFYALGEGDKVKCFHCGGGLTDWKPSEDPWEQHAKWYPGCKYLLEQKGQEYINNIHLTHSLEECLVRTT

Broadly, the Kd is the equilibrium constant for the complex coming apart. As to `CN[C@@H](C)C(=O)N[C@H](C(=O)N1CC[C@@H]2[C@H]1[C@@H](C(=O)NCCc1ccccc1)CN2S(C)(=O)=O)C1CCCCC1` [Example 16, 4-[2-Cyclohexyl-2-(2-methylamino-propionylamino)-acetyl]-1-methanesulfonyl-octahydro-pyrrolo[3,2-b]pyrrole-3-carboxylic acid-phenethyl-amide], the Kd on cIAP-1 BIR-3 and on XIAP BIR-3 was less than 100 nM throughout. Further, the CC50 in the assay on SK-OV-3 cells is 100 to 1000 nM.
Turning to `CN[C@@H](C)C(=O)N[C@H](C(=O)N1CC[C@@H]2[C@H]1[C@@H](C(=O)Nc1cccc3ccccc13)CN2S(C)(=O)=O)C1CCCCC1` [Example 17, 4-[2-Cyclohexyl-2-(2-methylamino-propionylamino)-acetyl]-1-methanesulfonyl-octahydro-pyrrolo[3,2-b]pyrrole-3-carboxylic acid naphthalen-1-ylamide], the equilibrium dissociation constant (Kd) on cIAP-1 BIR-3 and on XIAP BIR-3 was less than 100 nM throughout. The CC50 in the assay with SK-OV-3 cells was less than 100 nM.
For `CN[C@@H](C)C(=O)N[C@H](C(=O)N1CC[C@@H]2[C@H]1[C@@H](C(=O)Nc1ccc3ccccc3c1)CN2S(C)(=O)=O)C1CCCCC1` [Example 18, 4-[2-Cyclohexyl-2-(2-methylamino-propionylamino)-acetyl]-1-methanesulfonyl-octahydro-pyrrolo[3,2-b]pyrrole-3-carboxylic acid naphthalen-2-ylamide], the Kd is less than 100 nM at cIAP-1 BIR-3 and 100 to 1000 nM on XIAP BIR-3. Besides, in the assay with SK-OV-3 cells, the CC50 was less than 100 nM.
`CN[C@@H](C)C(=O)N[C@H](C(=O)N1CC[C@@H]2[C@H]1[C@@H](C(=O)NCC1CCCCC1)CN2S(C)(=O)=O)C1CCCCC1` [Example 19, 4-[2-Cyclohexyl-2-(2-methylamino-propionylamino)-acetyl]-1-methanesulfonyl-octahydro-pyrrolo[3,2-b]pyrrole-3-carboxylic acid cyclohexylmethyl-amide]: the Kd at cIAP-1 BIR-3 and on XIAP BIR-3 was less than 100 nM each time. The CC50 in the assay on SK-OV-3 cells is less than 100 nM.
As for `CN[C@@H](C)C(=O)N[C@H](C(=O)N1CC[C@@H]2[C@H]1[C@@H](C(=O)NCc1ccccc1)CN2S(C)(=O)=O)C(C)(C)C` [Example 20, 4-[3,3-Dimethyl-2-(2-methylamino-propionylamino)-butyryl]-1-methanesulfonyl-octahydro-pyrrolo[3,2-b]pyrrole-3-carboxylic acid benzylamide], the Kd on cIAP-1 BIR-3 and at XIAP BIR-3 was less than 100 nM throughout. In the assay on SK-OV-3 cells, the CC50 was less than 100 nM.
With `CN[C@@H](C)C(=O)N[C@H](C(=O)N1CC[C@@H]2[C@H]1[C@@H](C(=O)NCc1ccc(F)cc1)CN2S(C)(=O)=O)C(C)(C)C` [Example 21, 4-[3,3-Dimethyl-2-(2-methylamino-propionylamino)-butyryl]-1-methanesulfonyl-octahydro-pyrrolo[3,2-b]pyrrole-3-carboxylic acid 4-fluoro-benzylamide], the dissociation constant Kd at cIAP-1 BIR-3 and at XIAP BIR-3 was less than 100 nM in each case. The CC50 in the assay with SK-OV-3 cells is less than 100 nM.
As for `CN[C@@H](C)C(=O)N[C@H](C(=O)N1CC[C@@H]2[C@H]1[C@@H](C(=O)Nc1ccccc1)CN2S(C)(=O)=O)C(C)(C)C` [Example 22, 4-[3,3-Dimethyl-2-(2-methylamino-propionylamino)-butyryl]-1-methanesulfonyl-octahydro-pyrrolo[3,2-b]pyrrole-3-carboxylic acid phenylamide], the dissociation constant Kd on cIAP-1 BIR-3 and at XIAP BIR-3 was less than 100 nM in each case. Moreover, the CC50 in the assay with SK-OV-3 cells is less than 100 nM.
Regarding `CN[C@@H](C)C(=O)N[C@H](C(=O)N1CC[C@@H]2[C@H]1[C@@H](C(=O)N[C@H]1CCCc3ccccc31)CN2S(C)(=O)=O)C(C)(C)C` [Example 23, 4-[3,3-Dimethyl-2-(2-methylamino-propionylamino)-butyryl]-1-methanesulfonyl-octahydro-pyrrolo[3,2-b]pyrrole-3-carboxylic acid (1,2,3,4-tetrahydro-naphthalen-1-yl)-amide], the equilibrium dissociation constant (Kd) at cIAP-1 BIR-3 and on XIAP BIR-3 was less than 100 nM each time. Moreover, the CC50 in the assay with SK-OV-3 cells fell in the range of 100 to 1000 nM.
On to `CN[C@@H](C)C(=O)N[C@H](C(=O)N1CC[C@@H]2[C@H]1[C@@H](C(=O)Nc1cccc3ccccc13)CN2S(C)(=O)=O)C(C)(C)C` [Example 24, 4-[3,3-Dimethyl-2-(2-methylamino-propionylamino)-butyryl]-1-methanesulfonyl-octahydro-pyrrolo[3,2-b]pyrrole-3-carboxylic acid naphthalen-1-ylamide], for which the dissociation constant (Kd) on cIAP-1 BIR-3 and on XIAP BIR-3 was less than 100 nM in each case. Also, the CC50 in the assay on SK-OV-3 cells was less than 100 nM.
For the compound `CN[C@@H](C)C(=O)N[C@H](C(=O)N1CC[C@@H]2[C@H]1[C@@H](C(=O)Nc1ccc3ccccc3c1)CN2S(C)(=O)=O)C(C)(C)C` [Example 25, 4-[3,3-Dimethyl-2-(2-methylamino-propionylamino)-butyryl]-1-methanesulfonyl-octahydro-pyrrolo[3,2-b]pyrrole-3-carboxylic acid naphthalen-2-ylamide], the Kd on cIAP-1 BIR-3 and on XIAP BIR-3 was less than 100 nM throughout. The CC50 in the assay on SK-OV-3 cells was less than 100 nM.
On to `CN[C@@H](C)C(=O)N[C@H](C(=O)N1CC[C@@H]2[C@H]1[C@@H](C(=O)Nc1cc(C)nn1-c1ccccc1)CN2S(C)(=O)=O)C(C)(C)C` [Example 26, 4-[3,3-Dimethyl-2-(2-methylamino-propionylamino)-butyryl]-1-methanesulfonyl-octahydro-pyrrolo[3,2-b]pyrrole-3-carboxylic acid (5-methyl-2-phenyl-2H-pyrazol-3-yl)-amide], for which the equilibrium dissociation constant (Kd) on cIAP-1 BIR-3 and at XIAP BIR-3 was less than 100 nM each time. In addition, the CC50 with SK-OV-3 cells is 100 to 1000 nM.
Consider `CN[C@@H](C)C(=O)N[C@H](C(=O)N1CC[C@@H]2[C@H]1[C@@H](C(=O)N[C@@H]1CCCc3ccccc31)CN2S(C)(=O)=O)C(C)(C)C` [Example 27, 4-[3,3-Dimethyl-2-(2-methylamino-propionylamino)-butyryl]-1-methanesulfonyl-octahydro-pyrrolo[3,2-b]pyrrole-3-carboxylic acid (1,2,3,4-tetrahydro-naphthalen-1-yl)-amide], for which the equilibrium dissociation constant (Kd) at cIAP-1 BIR-3 and at XIAP BIR-3 was less than 100 nM each time. In the assay on SK-OV-3 cells, the CC50 is less than 100 nM.
Turning to `CN[C@@H](C)C(=O)N[C@H](C(=O)N1CC[C@@H]2[C@H]1[C@@H](C(=O)N[C@@H](C)C1CCCCC1)CN2S(C)(=O)=O)C(C)(C)C` [Example 28, 4-[3,3-Dimethyl-2-(2-methylamino-propionylamino)-butyryl]-1-methanesulfonyl-octahydro-pyrrolo[3,2-b]pyrrole-3-carboxylic acid (1S-cyclohexyl-ethyl)-amide], the Kd on cIAP-1 BIR-3 and at XIAP BIR-3 was less than 100 nM throughout. Further, the CC50 with SK-OV-3 cells is less than 100 nM.
`CN[C@@H](C)C(=O)N[C@H](C(=O)N1CC[C@@H]2[C@H]1[C@@H](C(=O)N[C@H](C)C1CCCCC1)CN2S(C)(=O)=O)C(C)(C)C` [Example 29, 4-[3,3-Dimethyl-2-(2-methylamino-propionylamino)-butyryl]-1-methanesulfonyl-octahydro-pyrrolo[3,2-b]pyrrole-3-carboxylic acid (1R-cyclohexyl-ethyl)-amide]: the equilibrium dissociation constant (Kd) at cIAP-1 BIR-3 is less than 100 nM; on XIAP BIR-3, 1000 to 10000 nM. In the assay with SK-OV-3 cells, the CC50 was in the range of 1000 to 10000 nM.
For `CN[C@@H](C)C(=O)N[C@H](C(=O)N1CC[C@@H]2[C@H]1[C@@H](C(=O)N[C@@H](Cc1ccccc1)C(=O)O)CN2S(C)(=O)=O)C1CCCCC1` [Example 30, 2-({4-[2-Cyclohexyl-2-(2-methylamino-propionylamino)-acetyl]-1-methanesulfonyl-octahydro-pyrrolo[3,2-b]pyrrole-3-carbonyl}-amino)-3-phenyl-propionic acid], the Kd at cIAP-1 BIR-3 was less than 100 nM; on XIAP BIR-3, 1000 to 10000 nM. Further, the CC50 with SK-OV-3 cells was 1000 to 10000 nM.
`CN[C@@H](C)C(=O)N[C@H](C(=O)N1CC[C@H]2NC[C@H](C(=O)Nc3ccccc3)[C@H]21)C1CCCCC1` [Example 31]: the values for the Kd on cIAP-1 BIR-3 and at XIAP BIR-3 were less than 100 nM and 100 to 1000 nM, respectively. Further, the CC50 with SK-OV-3 cells was in the range of 100 to 1000 nM.
